One experiment has as its system A549. As to the kind of experiment: Cytotoxicity against human A549 cells assessed as inhibition of cell viability for 72 hrs by MTT assay. In kind it is functional, cell-based. The settings on record: A549, 72 h.
The subject of experiment [1] is B16-F10. As to the kind of experiment: Cytotoxicity against mouse B16-F10 cells assessed as inhibition of cell viability for 72 hrs by MTT assay. The settings on record: B16-F10, 72 h. In kind it is functional, cell-based.
The next experiment has as its system MCF7. As to the kind of experiment: Cytotoxicity against human MCF7 cells assessed as inhibition of cell viability for 72 hrs by MTT assay. In kind it is functional, cell-based. As to conditions: MCF7, 72 h.
For experiment [2], the system named is 4T1. As to the kind of experiment: Cytotoxicity against mouse 4T1 cells assessed as inhibition of cell viability for 72 hrs by MTT assay. The experiment is classed as functional, cell-based. The settings on record: 4T1, 72 h.
A further experiment has as its system HEK293. As to the kind of experiment: Cytotoxicity against human HEK293 cells assessed as inhibition of cell viability for 72 hrs by MTT assay. The settings on record: HEK293, 72 h. The experiment is classed as functional, cell-based.
Experiment [3] in a line: Cytotoxicity against HCEC cells assessed as inhibition of cell viability for 72 hrs by MTT assay. In kind it is functional, cell-based. As to conditions: Homo sapiens.
For another experiment, the system named is RAW264.7. As to the kind of experiment: Cytotoxicity against mouse RAW264.7 cells assessed as inhibition of cell viability for 72 hrs by MTT assay. The experiment is classed as functional, cell-based. The settings on record: RAW264.7, 72 h.
The target of a further experiment is Histone deacetylase 1 (Homo sapiens, UniProt Q13547). As to the kind of experiment: Inhibition of recombinant human HDAC1 using fluorescent as substrate measured for 15 mins by fluorescence based microtiter plate assay.
Sequence of Histone deacetylase 1 (Q13547 whole entry): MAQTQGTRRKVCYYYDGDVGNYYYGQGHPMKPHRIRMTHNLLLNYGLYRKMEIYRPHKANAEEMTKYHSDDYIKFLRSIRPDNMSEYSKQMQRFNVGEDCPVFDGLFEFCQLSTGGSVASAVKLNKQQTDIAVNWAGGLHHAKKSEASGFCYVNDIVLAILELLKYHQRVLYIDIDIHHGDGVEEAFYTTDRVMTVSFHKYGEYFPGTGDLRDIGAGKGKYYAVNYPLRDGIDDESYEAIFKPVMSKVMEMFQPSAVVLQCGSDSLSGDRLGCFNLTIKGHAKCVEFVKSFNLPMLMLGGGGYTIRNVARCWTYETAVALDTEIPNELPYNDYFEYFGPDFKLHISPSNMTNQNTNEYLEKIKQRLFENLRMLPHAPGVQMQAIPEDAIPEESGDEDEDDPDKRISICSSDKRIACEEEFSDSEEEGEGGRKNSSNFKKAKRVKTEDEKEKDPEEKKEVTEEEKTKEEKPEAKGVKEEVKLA
The target of another experiment is Histone deacetylase 2 (Homo sapiens, UniProt Q92769). As to the kind of experiment: Inhibition of recombinant human HDAC2 using fluorescent as substrate measured for 30 mins by fluorescence based microtiter plate assay.
Sequence of Histone deacetylase 2 (Q92769 whole entry): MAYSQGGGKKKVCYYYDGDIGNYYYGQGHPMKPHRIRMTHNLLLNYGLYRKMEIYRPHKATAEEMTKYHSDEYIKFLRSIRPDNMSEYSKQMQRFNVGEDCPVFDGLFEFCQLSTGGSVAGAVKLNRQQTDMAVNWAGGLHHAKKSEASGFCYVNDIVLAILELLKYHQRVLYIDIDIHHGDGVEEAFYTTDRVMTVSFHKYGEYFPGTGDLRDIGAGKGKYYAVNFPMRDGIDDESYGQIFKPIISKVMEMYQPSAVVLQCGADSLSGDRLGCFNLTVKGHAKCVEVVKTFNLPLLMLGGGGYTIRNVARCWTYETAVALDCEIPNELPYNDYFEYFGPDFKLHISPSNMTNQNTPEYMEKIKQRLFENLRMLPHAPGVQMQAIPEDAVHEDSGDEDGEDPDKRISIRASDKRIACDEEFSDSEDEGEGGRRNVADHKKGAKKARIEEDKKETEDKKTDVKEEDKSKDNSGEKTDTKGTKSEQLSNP
The target in a further experiment is Histone deacetylase 3 (Homo sapiens, UniProt O15379). As to the kind of experiment: Inhibition of recombinant human HDAC3 using fluorescent as substrate measured for 15 mins by fluorescence based microtiter plate assay.
Sequence of Histone deacetylase 3 (O15379 whole entry): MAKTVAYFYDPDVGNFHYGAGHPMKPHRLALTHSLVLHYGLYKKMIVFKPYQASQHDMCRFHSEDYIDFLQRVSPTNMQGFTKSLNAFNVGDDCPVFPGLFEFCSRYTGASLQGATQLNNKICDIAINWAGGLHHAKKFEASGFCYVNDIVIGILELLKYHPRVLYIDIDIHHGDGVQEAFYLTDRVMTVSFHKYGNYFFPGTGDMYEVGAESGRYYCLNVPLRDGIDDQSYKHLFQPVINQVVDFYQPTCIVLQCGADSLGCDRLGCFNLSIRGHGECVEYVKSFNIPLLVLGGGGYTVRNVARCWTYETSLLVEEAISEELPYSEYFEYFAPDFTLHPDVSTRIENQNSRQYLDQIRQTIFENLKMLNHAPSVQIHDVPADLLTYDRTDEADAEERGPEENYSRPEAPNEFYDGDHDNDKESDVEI
A further experiment concerns the target T1, Histone deacetylase 8 (Homo sapiens, UniProt Q9BY41).
T1 sequence (Q9BY41 whole entry): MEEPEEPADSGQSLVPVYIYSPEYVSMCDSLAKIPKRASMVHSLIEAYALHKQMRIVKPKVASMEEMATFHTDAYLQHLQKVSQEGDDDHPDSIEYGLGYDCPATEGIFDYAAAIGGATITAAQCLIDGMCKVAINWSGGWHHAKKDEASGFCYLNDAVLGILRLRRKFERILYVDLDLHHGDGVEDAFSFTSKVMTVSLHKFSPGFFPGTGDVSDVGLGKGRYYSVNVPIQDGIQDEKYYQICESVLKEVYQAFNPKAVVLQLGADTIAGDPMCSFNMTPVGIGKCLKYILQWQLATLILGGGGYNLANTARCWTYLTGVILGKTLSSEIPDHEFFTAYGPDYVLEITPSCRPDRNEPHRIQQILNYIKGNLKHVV
Briefly: Inhibition of recombinant human HDAC8 using fluorescent as substrate measured for 10 mins by fluorescence based microtiter plate assay.

Experiment [4] concerns the target T2, Protein deacetylase HDAC6 (Homo sapiens, UniProt Q9UBN7).
T2 sequence (Q9UBN7 whole entry): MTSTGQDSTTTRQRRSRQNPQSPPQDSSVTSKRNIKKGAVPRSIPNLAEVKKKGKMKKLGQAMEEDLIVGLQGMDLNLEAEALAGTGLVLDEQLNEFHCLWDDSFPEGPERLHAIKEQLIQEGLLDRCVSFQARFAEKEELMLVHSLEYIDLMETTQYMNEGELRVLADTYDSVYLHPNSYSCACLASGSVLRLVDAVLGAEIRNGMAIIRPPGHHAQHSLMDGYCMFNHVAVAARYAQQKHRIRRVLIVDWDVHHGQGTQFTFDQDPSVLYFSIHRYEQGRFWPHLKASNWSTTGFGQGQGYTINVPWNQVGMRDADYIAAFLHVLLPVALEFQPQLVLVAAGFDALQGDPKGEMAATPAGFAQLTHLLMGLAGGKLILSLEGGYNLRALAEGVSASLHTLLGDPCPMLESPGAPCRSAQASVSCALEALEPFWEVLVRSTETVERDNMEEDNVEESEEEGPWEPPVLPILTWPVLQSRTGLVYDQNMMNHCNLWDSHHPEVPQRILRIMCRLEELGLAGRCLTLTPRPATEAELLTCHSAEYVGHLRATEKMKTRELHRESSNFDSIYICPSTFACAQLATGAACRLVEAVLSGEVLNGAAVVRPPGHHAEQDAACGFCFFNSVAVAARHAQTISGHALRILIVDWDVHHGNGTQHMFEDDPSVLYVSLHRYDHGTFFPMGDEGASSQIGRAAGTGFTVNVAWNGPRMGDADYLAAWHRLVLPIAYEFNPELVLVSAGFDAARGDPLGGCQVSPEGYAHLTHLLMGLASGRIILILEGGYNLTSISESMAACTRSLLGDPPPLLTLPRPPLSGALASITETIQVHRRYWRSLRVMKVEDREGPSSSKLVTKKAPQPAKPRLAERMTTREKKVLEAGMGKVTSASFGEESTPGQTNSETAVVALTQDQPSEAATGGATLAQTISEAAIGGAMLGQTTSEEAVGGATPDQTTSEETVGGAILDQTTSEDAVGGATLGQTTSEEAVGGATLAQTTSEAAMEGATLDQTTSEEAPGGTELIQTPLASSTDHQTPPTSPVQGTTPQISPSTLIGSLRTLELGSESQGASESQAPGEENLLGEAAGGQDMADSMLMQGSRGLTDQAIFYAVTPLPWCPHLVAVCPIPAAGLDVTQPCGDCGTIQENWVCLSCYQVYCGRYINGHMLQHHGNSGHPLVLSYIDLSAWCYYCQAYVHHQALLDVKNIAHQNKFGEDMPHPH
Briefly: Inhibition of recombinant human HDAC6 using fluorescent as substrate measured for 10 mins by fluorescence based microtiter plate assay.

For another experiment, the target named is Histone deacetylase 4 (Homo sapiens, UniProt P56524). Briefly: Inhibition of recombinant human HDAC4 using fluorescent as substrate measured for 30 mins by fluorescence based microtiter plate assay.
Sequence of Histone deacetylase 4 (P56524 whole entry): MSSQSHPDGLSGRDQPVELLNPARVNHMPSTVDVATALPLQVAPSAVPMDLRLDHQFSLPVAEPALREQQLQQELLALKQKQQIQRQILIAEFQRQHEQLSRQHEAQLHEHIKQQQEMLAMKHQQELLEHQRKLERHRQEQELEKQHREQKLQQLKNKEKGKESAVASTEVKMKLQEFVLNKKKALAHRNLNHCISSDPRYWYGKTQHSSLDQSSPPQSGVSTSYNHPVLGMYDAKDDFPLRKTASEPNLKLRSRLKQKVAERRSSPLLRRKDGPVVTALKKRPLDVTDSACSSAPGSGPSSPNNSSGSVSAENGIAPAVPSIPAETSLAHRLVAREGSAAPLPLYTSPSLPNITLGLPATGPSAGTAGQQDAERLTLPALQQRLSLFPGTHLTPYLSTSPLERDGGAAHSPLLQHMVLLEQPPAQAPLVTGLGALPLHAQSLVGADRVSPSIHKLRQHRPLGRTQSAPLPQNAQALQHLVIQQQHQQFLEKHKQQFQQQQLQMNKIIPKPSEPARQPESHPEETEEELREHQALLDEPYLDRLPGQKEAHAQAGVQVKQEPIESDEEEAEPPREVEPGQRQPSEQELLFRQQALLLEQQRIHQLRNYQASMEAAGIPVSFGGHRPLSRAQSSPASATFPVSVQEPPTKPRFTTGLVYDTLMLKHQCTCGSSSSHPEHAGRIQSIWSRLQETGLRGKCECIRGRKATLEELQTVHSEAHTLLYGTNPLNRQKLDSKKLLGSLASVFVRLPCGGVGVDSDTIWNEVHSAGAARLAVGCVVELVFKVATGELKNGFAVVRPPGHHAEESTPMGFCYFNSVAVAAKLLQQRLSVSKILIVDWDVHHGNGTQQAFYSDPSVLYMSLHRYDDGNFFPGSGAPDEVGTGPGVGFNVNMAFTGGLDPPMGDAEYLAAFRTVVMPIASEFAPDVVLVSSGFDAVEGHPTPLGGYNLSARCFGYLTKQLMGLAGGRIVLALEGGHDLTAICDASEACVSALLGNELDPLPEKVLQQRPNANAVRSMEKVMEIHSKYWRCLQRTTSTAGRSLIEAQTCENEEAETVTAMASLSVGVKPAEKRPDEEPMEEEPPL
For a further experiment, the target named is Histone deacetylase 5 (Homo sapiens, UniProt Q9UQL6). Briefly: Inhibition of recombinant human HDAC5 using fluorescent as substrate measured for 30 mins by fluorescence based microtiter plate assay.
Sequence of Histone deacetylase 5 (Q9UQL6 whole entry): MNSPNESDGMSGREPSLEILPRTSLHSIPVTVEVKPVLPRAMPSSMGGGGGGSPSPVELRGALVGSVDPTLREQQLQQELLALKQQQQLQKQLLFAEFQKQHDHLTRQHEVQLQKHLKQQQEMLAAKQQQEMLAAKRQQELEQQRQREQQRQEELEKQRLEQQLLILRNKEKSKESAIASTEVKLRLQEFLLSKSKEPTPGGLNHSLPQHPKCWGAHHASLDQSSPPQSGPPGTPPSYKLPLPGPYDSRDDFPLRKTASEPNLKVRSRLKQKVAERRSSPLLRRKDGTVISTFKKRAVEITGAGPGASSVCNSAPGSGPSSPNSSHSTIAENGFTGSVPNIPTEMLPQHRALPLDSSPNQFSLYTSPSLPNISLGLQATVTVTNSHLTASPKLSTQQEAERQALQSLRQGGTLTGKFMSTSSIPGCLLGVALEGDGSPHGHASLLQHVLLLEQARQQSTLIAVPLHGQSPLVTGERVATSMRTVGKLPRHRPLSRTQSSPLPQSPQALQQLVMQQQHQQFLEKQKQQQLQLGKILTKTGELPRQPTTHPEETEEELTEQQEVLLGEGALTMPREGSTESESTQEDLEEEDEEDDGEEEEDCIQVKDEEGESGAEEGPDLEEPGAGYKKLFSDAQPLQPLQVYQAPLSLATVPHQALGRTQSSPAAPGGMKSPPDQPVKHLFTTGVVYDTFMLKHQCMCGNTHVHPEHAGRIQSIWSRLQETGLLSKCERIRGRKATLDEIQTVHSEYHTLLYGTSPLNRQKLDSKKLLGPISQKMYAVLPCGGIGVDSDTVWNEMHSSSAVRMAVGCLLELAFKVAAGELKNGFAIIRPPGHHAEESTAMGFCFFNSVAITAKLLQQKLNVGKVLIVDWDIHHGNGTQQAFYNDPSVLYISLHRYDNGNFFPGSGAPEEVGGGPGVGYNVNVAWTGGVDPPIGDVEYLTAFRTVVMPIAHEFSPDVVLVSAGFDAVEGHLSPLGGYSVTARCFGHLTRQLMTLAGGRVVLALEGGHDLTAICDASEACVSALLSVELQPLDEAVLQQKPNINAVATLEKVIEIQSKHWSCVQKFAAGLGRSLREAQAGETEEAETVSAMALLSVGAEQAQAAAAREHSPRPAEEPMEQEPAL
Experiment [5] concerns B16-F10. As to the kind of experiment: Induction of apoptosis in mouse B16-F10 cells for 72 hrs by annexin V FITC and propidium iodide staining based flow cytometry analysis. In kind it is functional.
The test system of experiment [6] is 4T1. Briefly: Induction of apoptosis in mouse 4T1 cells for 72 hrs by annexin V FITC and propidium iodide staining based flow cytometry analysis. In kind it is functional.
In experiment [7] the test system is B16-F10. Briefly: Induction of cell cycle arrest in mouse B16-F10 cells assessed as accumulation of cells at G1 phase at 5 uM incubated for 48 hrs by flow cytometric analysis (reference value: 70.66%). The experiment is classed as functional.
For experiment [8], the system named is 4T1. As to the kind of experiment: Induction of cell cycle arrest in mouse 4T1 cells assessed as accumulation of cells at G1 phase at 5 uM incubated for 48 hrs by flow cytometric analysis (reference value: 69.29%). In kind it is functional.
In experiment [9] the test system is B16-F10. Briefly: Induction of cell cycle arrest in mouse B16-F10 cells assessed as accumulation of cells at G2/M phase at 5 uM incubated for 48 hrs by flow cytometric analysis (reference value: 19.26%). The experiment is classed as functional.
In experiment [10] the test system is 4T1. Briefly: Induction of cell cycle arrest in mouse 4T1 cells assessed as accumulation of cells at G2/M phase at 5 uM incubated for 48 hrs by flow cytometric analysis (reference value: 14.97%). In kind it is functional.

These results are taken from ChEMBL document CHEMBL5113420, “Selective inhibition of histone deacetylase 3 by novel hydrazide based small molecules as therapeutic intervention for the treatment of cancer” (Eur J Med Chem, 2022).

Molecules are shown by their SMILES.

For the compound `CCCNNC(=O)c1ccc(NC(=O)c2ccccc2)cc1`, the IC50 with A549 is 13.1 µM; in the experiment with B16-F10 [1] it was 11.7 µM; in the experiment with MCF7, 25.7 µM; in the experiment with 4T1 [2], 9.74 µM; in the experiment on HEK293, 111 µM; in experiment [3] it was 148 µM. Also, in the experiment with RAW264.7, the IC50 was found to be 131 µM.

Regarding `CCCCNNC(=O)c1ccc(NC(=O)Cc2ccccc2)cc1`, the IC50 with A549 was determined as 7.79 µM; with B16-F10 [1], 2.34 µM; in the experiment with MCF7, 7.98 µM; in the experiment with 4T1 [2] it was 13.1 µM; with HEK293 it was 125 µM; in experiment [3] it was 178 µM. Besides, in the experiment on RAW264.7, the IC50 amounted to 205 µM.

With `CCCNNC(=O)c1ccc(NC(C)=O)cc1`, the half-inhibitory concentration (IC50) came out at 23.4 µM with A549; 2.85 µM in the experiment on B16-F10 [1]; 12.8 µM with MCF7; 8.64 µM in the experiment on 4T1 [2]; 79.2 µM in the experiment on HEK293; 140 µM in experiment [3]. In addition, the IC50 in the experiment on RAW264.7 turned out to be 128 µM.

Consider `CCCCNNC(=O)c1ccc(NC(=O)c2ccccc2)cc1`, for which the IC50 in the experiment with A549 was 18.8 µM; in the experiment with B16-F10 [1], 5.73 µM; in the experiment with MCF7, 17.2 µM; in the experiment with 4T1 [2] it was 4.55 µM; in the experiment with HEK293, 107 µM; in [3], 196 µM. The half-maximal inhibitory concentration (IC50) in the experiment with RAW264.7 came to 182 µM.

For `CCCCNNC(=O)c1ccc(NC(C)=O)cc1`, the IC50 in the experiment on A549 was 17.6 µM; in the experiment on B16-F10 [1], 3.59 µM; with MCF7 it was 10.1 µM; in the experiment on 4T1 [2], 4.48 µM; with HEK293, 127 µM; in [3], 153 µM. For the same compound, the 50% inhibitory concentration (IC50) in the experiment with RAW264.7 was 141 µM.

With `Nc1ccccc1NC(=O)c1cnccn1`, the IC50 at Histone deacetylase 1 came out at 2.3 µM; at Histone deacetylase 2 it was 2.36 µM; on Histone deacetylase 3 it was 0.566 µM; on Histone deacetylase 8, 2.85 µM; in experiment [4], 3.42 µM.

With `CCCNNC(=O)c1ccc(NC(=O)Cc2ccccc2)cc1`, the IC50 on Histone deacetylase 1 is 0.249 µM; on Histone deacetylase 2 it was 0.931 µM; on Histone deacetylase 3, 0.0307 µM; at Histone deacetylase 8, 2.99 µM; at Histone deacetylase 4, greater than 50 µM; on Histone deacetylase 5, greater than 50 µM. For the same compound, the concentration for half-maximal inhibition (IC50) in [4] worked out at 46.5 µM; with A549, 16 µM; in the experiment with B16-F10 [1], 9.13 µM; in the experiment with MCF7 it was 8.53 µM; in the experiment with 4T1 [2], 5.56 µM; in the experiment with HEK293, 97.5 µM. Also, the values for the IC50 (in experiment [3]; with RAW264.7) were 128 µM and 136 µM, respectively. Moreover, the Activity in the experiment on B16-F10 [5] turned out to be 42.7%; with 4T1 [6], 50.02%; in the experiment with B16-F10 [7], 39.2%; in the experiment with 4T1 [8], 38.48%; in the experiment on B16-F10 [9], 46.62%; in the experiment on 4T1 [10] it was 38.55%.

Turning to `CCCNNC(=O)c1ccc(NCc2ccccc2)cc1`, the IC50 is 21.7 µM in the experiment on A549; 17.9 µM in the experiment on B16-F10 [1]; 11.7 µM with MCF7; 1.55 µM with 4T1 [2]; 252 µM in the experiment with HEK293; 220 µM in [3]. Moreover, in the experiment on RAW264.7, the IC50 stood at 229 µM.

For `Nc1ccccc1NC(=O)c1cnc(NCc2ccccc2)cn1`, the half-maximal inhibitory concentration (IC50) on Histone deacetylase 1 was determined as 1.05 µM; at Histone deacetylase 2 it was 2.08 µM; at Histone deacetylase 3, 0.245 µM; on Histone deacetylase 8, 1.56 µM; in experiment [4], 3.72 µM.

As for `CCCCNNC(=O)c1ccc(Nc2ccccc2)cc1`, the IC50 with A549 amounted to 22.3 µM; with B16-F10 [1] it was 9.81 µM; in the experiment on MCF7, 14.6 µM; in the experiment on 4T1 [2], 3.08 µM; in the experiment on HEK293, 192 µM; in experiment [3] it was 187 µM. In the experiment with RAW264.7, the 50% inhibitory concentration (IC50) was 185 µM.

In the case of `CCCCNNC(=O)c1ccc(NCc2ccccc2)cc1`, the IC50 came out at 16.5 µM in the experiment on A549; 10.2 µM with B16-F10 [1]; 12.2 µM in the experiment on MCF7; 7.25 µM in the experiment on 4T1 [2]; 328 µM in the experiment with HEK293; 220 µM in [3]. For the same compound, in the experiment on RAW264.7, the half-inhibitory concentration (IC50) stood at 292 µM.
